The structures appear in SMILES notation.

For assay [1], the target named is CPV18 polyhedrin (Operophtera brumata cypovirus 18, UniProt Q30C70). The assay is described as follows: X-ray crystal structure of polyhedra, […] A. Format: binding. The following applies: nucleotide trapped in crystal from Sf9 cells, purine cluster.
In assay [2] the target is CPV20 polyhedrin (Simulium ubiquitum cypovirus, UniProt Q0MX25). The assay is described as follows: X-ray crystal structure of polyhedra, […] A. Format: binding. The following applies: nucleotide trapped in crystal from Sf9 cells; pyrimidine region in trimer interface; not well ordered, identity inferred from space and hydrogen bonding.
For assay [3], the target named is CPV15 polyhedrin (Trichoplusia ni cypovirus 15, UniProt Q9ELS6). The settings on record: nucleotide trapped in crystal from Sf9 cells; two ATPs in purine cluster site, one on V3 and V2c, the other at the 2-fold axis.

Turning to `Nc1nc2c(ncn2[C@@H]2O[C@H](COP(=O)(O)OP(=O)(O)OP(=O)(O)O)[C@@H](O)[C@H]2O)c(=O)[nH]1` [GTP], the “X-ray crystal structure of polyhedra, 1.48 A” value in assay [1] (V2c and V1) was “GTP hydrogen bonds with V2c and V1”.

For the molecule `O=c1ccn([C@@H]2O[C@H](COP(=O)(O)OP(=O)(O)OP(=O)(O)O)[C@@H](O)[C@H]2O)c(=O)[nH]1` [UTP], the “X-ray crystal structure of polyhedra, 1.83 A” value in assay [2] was “The pyridine in CPV20 is not well ordered, but can be identified as UTP”.

As to `Nc1ncnc2c1ncn2[C@@H]1O[C@H](COP(=O)(O)OP(=O)(O)OP(=O)(O)O)[C@@H](O)[C@H]1O` [ATP], the “X-ray crystal structure of polyhedra, 1.82 A” value in assay [3] is “leaving space for two ATPs in different conformations to CPV1”. For the same molecule, the “X-ray crystal structure of polyhedra, 1.48 A” value in assay [1] (V4 regions of two chains, H154 to phosphates) is “ATP is supported by two V4 regions from different polypeptide chains”.

(Values after article PMC4597613, “Polyhedra structures and the evolution of the insect viruses” (Journal of Structural Biology, 2015).)
